From patent US10829484B2, “Compounds and methods for kinase modulation, and indications therefor” (Plexxikon Inc., priority 2015, dated 2020)

Each compound was assayed against T1, BaF3-FLT3-ITD (Homo sapiens, UniProt P36888, INS600HVDFREYEYD, cells depend on it) (assay: CTB viability assay CS0046, BaF3-FLT3-ITD). Conditions: BaF3-FLT3-ITD cells, CellTiter Blue viability, 72 hours; read-out: Cell Assay: CS0046:BaF3-FLT3-ITD CTB:IC50.
T1 sequence (P36888 with tags, fused parts or gaps INS600HVDFREYEYD): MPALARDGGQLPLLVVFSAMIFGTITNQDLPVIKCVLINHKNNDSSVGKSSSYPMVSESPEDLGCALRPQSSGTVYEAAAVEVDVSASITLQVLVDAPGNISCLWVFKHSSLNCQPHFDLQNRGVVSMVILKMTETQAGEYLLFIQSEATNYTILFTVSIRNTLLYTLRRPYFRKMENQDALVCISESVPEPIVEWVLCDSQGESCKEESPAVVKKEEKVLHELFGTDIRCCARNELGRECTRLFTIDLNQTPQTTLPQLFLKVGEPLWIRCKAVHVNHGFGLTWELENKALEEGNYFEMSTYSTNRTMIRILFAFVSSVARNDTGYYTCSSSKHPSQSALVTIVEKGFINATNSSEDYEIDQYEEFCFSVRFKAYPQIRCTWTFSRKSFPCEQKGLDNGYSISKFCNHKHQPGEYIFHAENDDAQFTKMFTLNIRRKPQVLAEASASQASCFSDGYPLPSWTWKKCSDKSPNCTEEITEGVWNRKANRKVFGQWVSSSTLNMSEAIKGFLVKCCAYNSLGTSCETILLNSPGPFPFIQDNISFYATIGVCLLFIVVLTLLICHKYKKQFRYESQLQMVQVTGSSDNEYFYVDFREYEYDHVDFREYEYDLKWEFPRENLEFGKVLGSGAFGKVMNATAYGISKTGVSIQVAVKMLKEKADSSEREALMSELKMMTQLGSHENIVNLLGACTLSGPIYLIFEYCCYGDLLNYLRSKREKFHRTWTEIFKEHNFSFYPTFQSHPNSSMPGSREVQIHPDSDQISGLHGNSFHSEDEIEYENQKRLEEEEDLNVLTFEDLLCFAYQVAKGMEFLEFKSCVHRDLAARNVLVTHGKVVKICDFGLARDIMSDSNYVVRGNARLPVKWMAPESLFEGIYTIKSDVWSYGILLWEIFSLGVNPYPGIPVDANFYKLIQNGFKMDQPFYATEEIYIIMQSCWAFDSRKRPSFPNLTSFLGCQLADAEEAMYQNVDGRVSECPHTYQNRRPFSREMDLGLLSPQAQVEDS
Format: cell-based, murine
Text: Gene constructs containing the human FLT3 sequences FLT3-ITD, FLT3-ITD-F691L, FLT3-ITD-D835V and FLT3-D835V were synthesized by reverse translation of the human protein sequences, with codons optimized for mammalian expression. Sequence of the internal tandem duplication (ITD) was based on the MV4-11 ITD sequence. Synthetic DNA constructs were cloned into the pMSCV puro retroviral vector (Clontech) and transfected into the EcoPack2-293 packaging cell line (Clontech) to generate retroviruses that contain the different FLT3 constructs. Viruses were transduced into the IL-3-dependent, murine […] cell line, Ba/F3, and selected for puromycin resistance and IL-3 independence. All cell lines were cloned by limiting dilution and clones were used for all subsequent cell assays. Overexpression of the FLT3 mutants in the Ba/F3 cells results in constitutive phosphorylation of the exogenous FLT3 protein, which is required for IL-3 independence.
Cell lines were serum starved overnight in media containing 0.5% FBS, plated at 15,000 cells/well in 96-well white-walled tissue culture plates, and 3-fold serial dilutions of test compounds of Formula I were added for 72 hours at 37° C. CellTiter Blue (CTB, Promega) was added and incubated for an additional 3 hours at 37° C. Fluorescence was read at 560 nm excitation, 590 nm emission. Wells with CTB+media only were used for background subtraction, and the fluorescence of compound-treated cells was normalized to the fluorescence of DMSO-treated cells. IC50s were determined using Igor Pro software. All compounds are assayed in duplicate cell plates.

Row | SMILES | GI50 [nM]
1 | Cc1nn(C)c(C)c1Nc1ncc(-c2ccc(CC(=O)Nc3cc(C4(C(F)(F)F)CC4)on3)c(F)c2)cn1 [P-029, 2-[2-fluoro-4-[2-[(l,3,5-trimethylpyrazol-4-yl)amino]pyrimidin-5-yl]phenyl]-N-[5-[1-(trifluoromethyl)cyclopropyl]isoxazol-3-yl]acetamide] | 10 to 50
2 | O=C(O)Cn1cc(Nc2ncc(-c3ccc(CC(=O)Nc4cc(C5(C(F)(F)F)CC5)on4)c(F)c3)cn2)cn1 [P-078, 2-[4-[[5-[3-fluoro-4-[2-oxo-2-[[5-[1-(trifluoromethyl)cyclopropyl]isoxazol-3-yl]amino]ethyl]phenyl]pyrimidin-2-yl]amino]pyrazol-1-yl]acetic acid] | 10 to 50

Same assay, conditions: Table 3; CellTiter Blue viability, 72 hours; read-out: Cell Assay: CS0046: BaF3-FLT3-ITD CTB: IC50

Row | SMILES | GI50 [nM]
3 | O=C(Cc1ccc(-c2cnc(Nc3ccccc3)nc2)cc1F)Nc1cc(C2(C(F)(F)F)CC2)on1 | 0.152
4 | Cn1cc(Nc2ncc(-c3ccc(CC(=O)Nc4cc(C5(C(F)(F)F)CC5)on4)c(F)c3)cn2)cn1 | 0.0861

Same assay, conditions: Table 4, compounds from WO 2011/022473; CellTiter Blue viability, 72 hours; read-out: Cell Assay: CS0046: BaF3-FLT3-ITD CTB: IC50

Row | SMILES | GI50 [nM]
5 | CC(C)(c1cc(NC(=O)Cc2ccc(-c3ccc(NCCN4CCOCC4)nc3)cc2)no1)C(F)(F)F [reference compound] | 0.597
6 | CNc1ccc(-c2ccc(CC(=O)Nc3cc(C(C)(C)C)on3)cc2)cn1 [reference compound] | 0.146
7 | CCNc1ccc(-c2ccc(CC(=O)Nc3cc(C(C)(C)C)on3)cc2)cn1 [reference compound] | 0.252
8 | CC(C)(C)c1cc(NC(=O)Nc2ccc(-c3cnc(NC4CCOCC4)nc3)cn2)no1 [reference compound] | 6.6
9 | CC(C)(C)c1cc(NC(=O)Nc2ccc(-c3cnc(NC4CC4)nc3)cn2)no1 [reference compound] | 5.91
